Reference: article PMC8636514, “Therapeutic potential of TRPM8 antagonists in prostate cancer” (Scientific Reports, 2021)
Read-outs that look alike come from different tables or passages of the source.

Assays:
[1] = target: T1, human TRPM8 (Homo sapiens, UniProt Q7Z2W7); settings: maximal currents at 5 µM compared to L-menthol 100 µM; cited from earlier work
T1 construct: expressed in transfected cells; host or cells: HEK-293/TRPM8 exon1 K3 cells

[2] = target: T1, human TRPM8; assay: Patch-clamp assay on TRPM8 channels (HEK-293/TRPM8 cells, menthol-evoked currents); format: cell-based; settings: for inhibitory effect on menthol-evoked TRPM8 currents: dependence on concentration
Experimental: Patch clamp experiments for compounds 4, 5 and 9 were done as described. HEK-293/TRPM8 exon 1 cells were seeded 3 or 4 days before experiment at a concentration of 4 and 2.5 million cells, respectively, onto a T225 flask. Before each experiment, cells were washed two times with D-PBS without Ca^2+/Mg^2+ (Euroclone, Milan, Italy) and trypsinized with trypsin−EDTA (Sigma-Aldrich; diluted 1/10). Cells were suspended in 25 mL of EX-CELL ACF CHO medium (Sigma-Aldrich, Milan, Italy), 0.625 mL of HEPES (Lonza, Walkersville, USA), 0.25 mL of 100 × penicillin/streptomycin (Lonza, Walkersville, USA), 0.1 mL of soybean trypsin inhibitor 10 mg/mL (Sigma-Aldrich), and placed on the automated patch-clamp platform (QPatch 16X, Sophion Bioscience, Ballerup, Denmark). A stock solution of L-Menthol (1 M, 100% DMSO), used as reference agonist, was freshly prepared. A diluted stock of 300 mM was prepared from the 1 M stock in 100% DMSO, and a final dilution was obtained using the extracellular solution to give a working concentration of 300 μM (1:1000, 0.1% final DMSO concentration). Stock solutions of the testing compounds (10 mM; 100% DMSO; stored at − 20 °C) were freshly prepared, as well. Further dilution of these stock solutions to a final concentration of 300 μM was performed from the 10 mM stock in 100% DMSO, and the working dilutions were performed just before the experiments using the extracellular solution containing 300 μM menthol. The highest concentration tested was 300 nM, with serial dilutions (1:10). DMSO was balanced to keep it constant throughout all the solutions in the same experiment (0.2% final DMSO concentration). Standard whole-cell voltage clamp experiments were performed at room temperature using the multihole technology. For the voltage clamp experiments on human TRPM8, data were sampled at 2 kHz. After establishment of the seal and the passage in the whole cell configuration, the cells were subjected to a voltage ramp (20 ms step at − 60 mV; 100 ms ramp − 60/ + 100 mV; 20 ms step at + 100 mV; return to − 60 mV) every 4 s. The antagonistic effect on human TRPM8 current of target compounds was evaluated after application of the agonist (menthol, 300 μM), in the absence or presence of increasing concentrations of the compound under investigation. Outward current evoked by the voltage ramp, measured in the step at + 100 mV were measured. The intracellular solution contained (mM) 135 CsCl, 10 BAPTA, 10 HEPES, 4 Na2ATP (pH 7.2 with CsOH). The extracellular solution contained (mM) 145 NaCl, 4 KCl, 1 MgCl2, 2 CaCl2, 10 HEPES, 10 glucose (pH 7.4 with NaOH). TRPM8 modulation by final compounds 3 and 6 has been previously determined by patch clamp measurements[29],[30].

[3] = test system: LNCaP cells; assay: DNA synthesis (BrdU incorporation) in LNCaP cells; format: cell-based, human; settings: 10 nM R1881, compound 1 μM
Experimental: […] Cells were fixed, permeabilized, washed and the BrdU incorporation was analysed as reported. Nuclei were stained with Hoechst and cells on coverslips were scored by IF microscopy, using a DMLB Leica (Leica) fluorescent microscope, equipped with HCX PL Apo 63 × oil objective. Different fields from each coverslip were analyzed and BrdU incorporation was calculated by the formula: percentage of BrdU-positive cells = (No. of BrdU-positive cells/No. of total cells) × 100. Data in the graphs derive from at least 1000 scored cells for each coverslip. Representative images were captured using DC480 camera (Leica) and acquired using Leica Suite software. They are representative of three different experiments.

[4] = test system: C4-2B cells; assay: DNA synthesis (BrdU incorporation) in C4-2B cells; format: cell-based, human; settings: cycling cells, 18 h, 10 μM
Experimental: Cells on coverslips were pulsed in vivo with BrdU (Sigma-Aldrich; at 100 μM, final concentration) and left unchallenged or challenged with 10 nM R1881 for 18 h, in the absence or presence of the indicated compounds. Cells were fixed, permeabilized, washed and the BrdU incorporation was analysed as reported. Nuclei were stained with Hoechst and cells on coverslips were scored by IF microscopy, using a DMLB Leica (Leica) fluorescent microscope, equipped with HCX PL Apo 63 × oil objective. Different fields from each coverslip were analyzed and BrdU incorporation was calculated by the formula: percentage of BrdU-positive cells = (No. of BrdU-positive cells/No. of total cells) × 100. Data in the graphs derive from at least 1000 scored cells for each coverslip. Representative images were captured using DC480 camera (Leica) and acquired using Leica Suite software. They are representative of three different experiments.

[5] = test system: PSA; assay: PSA secretion (ELISA) from LNCaP cells; format: cell-based, human; settings: enzalutamide 10 μM
Experimental: It was done in culture medium using the PSA ELISA kit (Abnova-Taiwan Corporation, Taiwan), according to the manufacturer’s instructions. Released PSA was analyzed at 450 nm using the EnSpire Multimode Plate Reader (Perkin-Elmer, U.S.A.).

[6] = test system: FAK, paxillin, ERK, RSK and Src tyrosine kinase; assay: Western blot of androgen-induced rapid actions in LNCaP cells (Fig. 6c); format: cell-based, human; settings: 10 nM R1881, 10 min, enzalutamide 10 μM
Excerpt: (§1) All performed as reported. The mouse monoclonal anti-AR (441; Santa Cruz) antibody was used in Co-Ip or WB approaches. TRPM8 was detected using the rabbit polyclonal anti-TRPM8 (NBP1-97311; Novus Biological). […] The rabbit polyclonal anti-ERK (C-14; Santa Cruz), antibody was used to detect total ERK. FAK and P-Tyr397 FAK were detected using the mouse monoclonal anti-FAK (Clone 77/610077 BD Transduction Laboratories) or anti P-Tyr397 FAK (Clone 14/611722; BD Transduction Laboratories) antibodies, respectively. P-Tyr118 paxillin and total paxillin were detected using the rabbit polyclonal anti-P-Y118 (#2541, Cell Signaling) or the mouse monoclonal anti-paxillin (clone 349; BD Biosciences) antibodies, respectively. […] P-Tyr 416 Src and Src were detected using the rabbit monoclonal anti P-Tyr 416 Src (#6943; Cell Signaling) or the mouse monoclonal anti Src (Calbiochem) antibodies, respectively. ERα and ERβ were detected using the rabbit polyclonal anti-ERα (543; Santa Cruz) or anti-ERβ (Upstate Biotechnology, U.S.A.) antibodies. Cyclin D1, p27 and Cdk4 were stained using the mouse monoclonal anti-cyclin D1 (clone AM29; from Zymed Laboratories Inc.), the rabbit polyclonal anti-p27 (C-19; Santa Cruz) or anti Cdk-4 (c-22; Santa Cruz) antibodies, respectively. The mouse monoclonal anti-tubulin (Sigma-Aldrich) antibody was used to detect tubulin. The ECL system (GE Healthcare) was employed to reveal immune-reactive proteins. Densitometric analysis of WB was performed by using Image J Software (https://imagej.nih.gov/ij).

[7] = target: T2, AR/TRPM8 complex (Homo sapiens, UniProt Q7Z2W7); assay: Co-IP of AR with TRPM8 in LNCaP cells; format: cell-based; settings: for AR, Average (n=3) / TRPM8, Average (n=3): Fig 6e, R1881 + enz 10 μM
T2 construct: We here dissected an endogenous non-genomic mechanism of the TRPM8 channel regulation by androgens in PC cells; endogenous in cells; host or cells: LNCaP cells
Excerpt: as §1

[8] = test system: AR; assay: Western blot of AR in LNCaP lysate proteins; format: cell-based, human; settings: Fig 6e, R1881 + enz 10 μM
Excerpt: as §1

[9] = test system: TRPM8; assay: Western blot of TRPM8 in LNCaP lysate proteins; format: cell-based, human; settings: Fig 6e, R1881 + enz 10 μM
Excerpt: as §1

[10] = test system: LNCaP cells; set-up: method as in PMID 33288740; settings: cited from earlier work
[11] = fourth group of list (probably IP anti-AR)

T2 sequence (Q7Z2W7 whole entry, one chain of several): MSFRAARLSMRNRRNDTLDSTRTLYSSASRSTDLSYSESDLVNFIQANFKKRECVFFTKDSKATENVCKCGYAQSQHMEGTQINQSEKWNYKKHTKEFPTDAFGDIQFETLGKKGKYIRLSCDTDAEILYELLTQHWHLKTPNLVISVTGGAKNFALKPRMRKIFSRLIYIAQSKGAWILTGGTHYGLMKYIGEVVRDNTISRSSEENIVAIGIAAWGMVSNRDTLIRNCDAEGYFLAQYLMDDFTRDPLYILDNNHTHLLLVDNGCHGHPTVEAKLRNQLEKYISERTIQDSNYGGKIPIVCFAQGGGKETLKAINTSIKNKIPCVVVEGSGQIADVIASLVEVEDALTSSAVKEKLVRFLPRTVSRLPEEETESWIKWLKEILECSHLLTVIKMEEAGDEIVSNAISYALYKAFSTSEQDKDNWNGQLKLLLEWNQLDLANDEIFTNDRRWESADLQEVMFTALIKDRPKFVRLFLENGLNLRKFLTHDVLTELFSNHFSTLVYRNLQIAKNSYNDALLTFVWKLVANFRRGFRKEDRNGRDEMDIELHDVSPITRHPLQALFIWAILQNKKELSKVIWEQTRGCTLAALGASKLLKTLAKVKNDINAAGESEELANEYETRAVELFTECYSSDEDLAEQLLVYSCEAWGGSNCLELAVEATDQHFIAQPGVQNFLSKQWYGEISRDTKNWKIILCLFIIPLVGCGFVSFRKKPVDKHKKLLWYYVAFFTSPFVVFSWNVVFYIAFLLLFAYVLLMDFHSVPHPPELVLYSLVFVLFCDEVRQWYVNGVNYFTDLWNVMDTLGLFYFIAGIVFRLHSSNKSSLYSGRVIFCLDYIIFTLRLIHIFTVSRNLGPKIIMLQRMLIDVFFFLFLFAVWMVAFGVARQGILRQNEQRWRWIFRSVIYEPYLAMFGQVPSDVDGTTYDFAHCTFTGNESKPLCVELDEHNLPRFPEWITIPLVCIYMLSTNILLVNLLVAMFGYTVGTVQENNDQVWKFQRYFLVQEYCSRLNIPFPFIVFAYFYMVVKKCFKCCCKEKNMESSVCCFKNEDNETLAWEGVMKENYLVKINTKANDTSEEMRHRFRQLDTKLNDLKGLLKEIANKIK
T1 sequence (Q7Z2W7 whole entry): as the sequence (Q7Z2W7 whole entry, one chain of several) above

## c1ccc(Oc2ccc(CNCCc3c[nH]c4ccccc34)cc2)cc1 [Compound 3]
[1]
  % Efficacy: 100.0 ±8.4%

## O=[N+]([O-])c1ccc(Sc2[nH]c3ccccc3c2CCNCc2ccc(Oc3ccccc3)cc2)c([N+](=O)[O-])c1 [Compound 5]
[2]; 300 µM menthol-evoked currents, read-out: Potency IC50
  IC50: 340 ± 26 nM
[2]; TRPM8 antagonist, menthol-evoked currents, one range for both compounds, read-out: IC50
  IC50: 204 to 340 nM
[2]
  inhibitory effect on menthol-evoked TRPM8 currents: concentration-dependent

## Cn1cc(CNCCc2ccc(-c3ccccc3)cc2)c2cc(CNc3ccc(F)cc3)ccc21 [Compound 9]
[2]; TRPM8 antagonist, read-out: IC50
  IC50: 5000 nM
[2]
  inhibitory effect on menthol-evoked TRPM8 currents: concentration-dependent
[3]
  inhibitory effect on R1881-stimulated DNA synthesis, compared with 3 and 5: stronger

## CNC(=O)c1ccc(N2C(=S)N(c3ccc(C#N)c(C(F)(F)F)c3)C(=O)C2(C)C)cc1F [Enzalutamide]
[4]
  BrdU incorporation: did not observe any effect
[5]; R1881, 48 h
  androgen-induced PSA secretion: strongly inhibited
[5]; no R1881
  PSA secretion when used alone: Neither the two TRPM8 antagonists, nor enzalutamide did modify such response
[6]
  androgen-elicited activation of FAK, paxillin, ERK, RSK and Src: impaired at similar extent
[7]; 10 nM R1881, 10 min, enzalutamide 10 μM
  androgen-induced AR/TRPM8 complex assembly: perturbed
[7]; [11]
  AR, Average (n=3): 1,1
  TRPM8, Average (n=3): 0,3
[7]; second group of list
  AR, Average (n=3): 0,1
  TRPM8, Average (n=3): 0,1
[7]; third group of list
  AR, Average (n=3): 1
  TRPM8, Average (n=3): 0
[8]
  AR, Average (n=3): 1,1
[9]
  TRPM8, Average (n=3): 1,1

## COc1ccc(NC(=O)[C@@H]2C[C@H](C)CC[C@H]2C(C)C)cc1 [WS-12]
[10]
  viability of LNCaP cells: slightly modify
